Measured values taken from PubChem BioAssay AID2060606 (Molecular Pharmacology Branch, DTP, NCI, 2025).
Values joined by “and” are separate entries in the source; they are usually repeats but may differ in a detail not shown here. Equal values may be shown once.

System: 922993-354-T-J3-PDC complex spheroids, viability, % test/control
Test: Anticancer human tumor 922993-354-T-J3-PDC patient-derived endometrial carcinoma cell line growth inhibition [CLK]
Settings: for viability, T/C: stronger effect = lower value
Source text: A high-throughput screen of multi-cell type tumor spheroids was designed to identify active combinations of […] and targeted small molecules. Complex spheroids include a stromal component modeled by human endothelial cells (HUVEC) and fibroblasts modeled by human mesenchymal stem cells (MSCs). The concentration ranges selected for each drug and investigational agent were based upon clinically achievable concentrations if the clinical Cmax of the agent was known.
Compounds. The drugs and investigational agents: cirtuvivint (SM08502; NSC835563), CC-671 (NSC850746), vemurafenib (NSC761431), tapotoclax (NSC804041), sotorasib (NSC818433), adagrasib (NSC831453), MRTX-1133 (NSC836407), BAY2416964 (NSC825713), copanlisib (NSC816437), inavolisib (NSC800729), abemaciclib (NSC768073), osimertinib (NSC779217), entinostat (NSC756642), eltanexor (KPT-8602, NSC794443), venetoclax (NSC766270), ceralasertib (NSC777638), bortezomib (NSC756655), olaparib (NSC753686), talazoparib (NSC767125), alisertib (NSC759677), peposertib (NSC802822), gemcitabine (NSC613327), 5-fluorouracil (NSC19893), SN-38 (NSC673596), oxaliplatin (NSC266046), paclitaxel (NSC125973), and doxorubicin (NSC123127), were obtained from the National Cancer Institute (NCI) Developmental Therapeutics Program Chemical Repository. The FDA-approved anticancer drug set is available from the Developmental Therapeutics Program at https://dtp.cancer.gov/organization/dscb/obtaining/available plates.htm. […] The stock solutions were prepared in dimethyl sulfoxide (DMSO, Sigma-Aldrich, St. Louis, MO, cat. D2650), except for the platinum complexes which were prepared in saline (Quality Biological, Gaithersburg, MD, cat. 114-055-101), at 800-fold the tested concentration and stored at -70 degrees C prior to their use. All drugs and investigational agents were tested over a range starting from a high concentration at or near the clinical Cmax and decreasing in half-log increments. If the clinical Cmax for an agent had not been determined, the highest concentration tested was 10 microM.
Cell Culture. All cells were maintained in an incubator at 37 degrees C and 5% CO2 with 95% humidity. The PDC lines were cultured according to standard operating procedures established by the NCI PDMR. Briefly, all PDCs were thawed and cultured in Matrigel-coated flasks prepared with a working solution of 1X Ham's F-12 nutrient mix, without supplementation (Invitrogen, Waltham, MA, cat. 11765054), 100 U/mL penicillin-streptomycin (Invitrogen, cat. 15140122), and 2.5% Matrigel (Corning Inc., Corning, NY, cat. 354248) for the first three passages. The 947758-054-R-J2-PDC line was cultured in 6B/Colon 1A media, which includes advanced DMEM/F-12 (Thermo Fisher Scientific, cat. 12634028), 10 mM HEPES (Thermo Fisher Scientific, cat. 15630080), 1X GlutaMAX supplement (Thermo Fisher Scientific, cat. 35050061), 0.1 mg/mL primocin (InvivoGen, cat. ant-pm-2), 10% defined fetal bovine serum, heat inactivated (HyClone Laboratories Inc., cat. SH30070.03HI), 1.25 mM N-Acetyl-L-cysteine (Sigma-Aldrich, cat. A9165), 10 mM nicotinamide (Sigma-Aldrich, cat. N0636), 1X B-27 supplement (Thermo Fisher Scientific, cat. 17504044), 1X N-2 supplement (Thermo Fisher Scientific, cat. 17502048), and 10 microM Y-27632 dihydrochloride (Tocris Bioscience, cat. 1254). The 876862-298-R-J1-PDC was cultured in 6E media, which includes all 6B/Colon 1A media components plus 50% L-WRN conditioned media (ATCC, cat. CRL-3276), 50 ng/mL recombinant human EGF recombinant protein (hEGF; Thermo Fisher Scientific, cat. PHG0311), 10 ng/mL recombinant human fibroblast growth factor 10 (hGFG-10; PeproTech, cat. 100-26), 1 ng/mL recombinant human fibroblast growth factor 2 (hFGF-2; PeproTech, cat. 100-18B), and 1 µM prostaglandin E2 (PGE2; Tocris, cat. 2296). The 227483-062-R1-J1-PDC line was cultured in Panc media, containing all 6E components except hFGF-2, with the addition of 500 nM SB-431542 (Selleckchem, cat. S1067) and 10 nM gastrin (Tocris, cat. 3006). […]

[1] = curve of first compound, second compound 0.0316 µM
[2] = curve of first compound, second compound 0.1 µM
[3] = curve of first compound, second compound 0.316 µM
[4] = curve of first compound, second compound 1 µM
[5] = curve of first compound, second compound 3.16 µM
[6] = curve of first compound, second compound 10 µM
[7] = second compound 0.0316 µM, first compound 0.0316 µM
[8] = second compound 0.0316 µM, first compound 0.1 µM
[9] = second compound 0.0316 µM, first compound 0.316 µM
[10] = second compound 0.0316 µM, first compound 1 µM
[11] = second compound 0.0316 µM, first compound 3.16 µM
[12] = second compound 0.0316 µM, first compound 10 µM
[13] = second compound 0.1 µM, first compound 0.0316 µM
[14] = second compound 0.1 µM, first compound 0.1 µM
[15] = second compound 0.1 µM, first compound 0.316 µM
[16] = second compound 0.1 µM, first compound 1 µM
[17] = second compound 0.1 µM, first compound 3.16 µM
[18] = second compound 0.1 µM, first compound 10 µM
[19] = second compound 0.316 µM, first compound 0.0316 µM
[20] = second compound 0.316 µM, first compound 0.1 µM
[21] = second compound 0.316 µM, first compound 0.316 µM
[22] = second compound 0.316 µM, first compound 1 µM
[23] = second compound 0.316 µM, first compound 3.16 µM
[24] = second compound 0.316 µM, first compound 10 µM
[25] = second compound 1 µM, first compound 0.0316 µM
[26] = second compound 1 µM, first compound 0.1 µM
[27] = second compound 1 µM, first compound 0.316 µM
[28] = second compound 1 µM, first compound 1 µM
[29] = second compound 1 µM, first compound 3.16 µM
[30] = second compound 1 µM, first compound 10 µM
[31] = second compound 3.16 µM, first compound 0.0316 µM
[32] = second compound 3.16 µM, first compound 0.1 µM
[33] = second compound 3.16 µM, first compound 0.316 µM
[34] = second compound 3.16 µM, first compound 1 µM
[35] = second compound 3.16 µM, first compound 3.16 µM
[36] = second compound 3.16 µM, first compound 10 µM
[37] = second compound 10 µM, first compound 0.0316 µM
[38] = second compound 10 µM, first compound 0.1 µM
[39] = second compound 10 µM, first compound 0.316 µM
[40] = second compound 10 µM, first compound 1 µM
[41] = second compound 10 µM, first compound 3.16 µM
[42] = second compound 10 µM, first compound 10 µM
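Further: spheroids exposed to the agents for 7 days before readout.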

C#Cc1c(F)ccc2cc(O)cc(-c3ncc4c(N5CC6CCC(C5)N6)nc(OCC56CCCN5CC(F)C6)nc4c3F)c12 (stereo unspecified) + CN1CCN(c2cc(C(=O)Nc3cc4cc(-c5cnn(C)c5)ccc4cn3)ccn2)CC1
IC50 [1]: > 10 µM | IC50 [2]: > 10 µM | IC50 [3]: 0.0568 µM | IC50 [4]: < 0.0316 µM | IC50 [5]: < 0.0316 µM | IC50 [6]: < 0.0316 µM | viability, T/C [7]: 123% | viability, T/C [8]: 113% | viability, T/C [9]: 122% | viability, T/C [10]: 107% | viability, T/C [11]: 111% | viability, T/C [12]: 93.3% | viability, T/C [13]: 99.5% | viability, T/C [14]: 105% | viability, T/C [15]: 91.9% | viability, T/C [16]: 92.4% | viability, T/C [17]: 103% | viability, T/C [18]: 88% | viability, T/C [19]: 57% | viability, T/C [20]: 47.9% | viability, T/C [21]: 38.6% | viability, T/C [22]: 42.1% | viability, T/C [23]: 41.4% | viability, T/C [24]: 41.3% | viability, T/C [25]: 0.17% | viability, T/C [26]: 0.42% | viability, T/C [27]: 1.47% | viability, T/C [28]: 0.44% | viability, T/C [29]: 0.92% | viability, T/C [30]: 0.14% | viability, T/C [31]: 0.14% | viability, T/C [32]: 0.2% | viability, T/C [33]: 0.11% | viability, T/C [34]: 0.11% | viability, T/C [35]: 2.16% | viability, T/C [36]: 2.87% | viability, T/C [37]: 0.88% | viability, T/C [38]: 0.85% | viability, T/C [39]: 1.6% | viability, T/C [40]: 0.15% | viability, T/C [41]: 2.52% | viability, T/C [42]: 3.71%

CC(=O)O[C@H]1C(=O)[C@@]2(C)[C@H]([C@H](OC(=O)c3ccccc3)[C@]3(O)C[C@H](OC(=O)[C@H](O)[C@@H](NC(=O)c4ccccc4)c4ccccc4)C(C)=C1C3(C)C)[C@]1(OC(C)=O)CO[C@@H]1C[C@@H]2O
viability, T/C (compound 0.0316 µM): 105% and 92.5% | viability, T/C (compound 0.1 µM): 79% and 115% | viability, T/C (compound 0.316 µM): 84% and 85.9% | viability, T/C (compound 1 µM): 95.6% and 88.3% | viability, T/C (compound 3.16 µM): 52.7% and 71.6% | viability, T/C (compound 10 µM): 37.1% and 40.2% | IC50 (curve of compound): 3.86 µM and 6.98 µM

CC(CO)NC(=O)c1cc(-c2ccc(Cl)cc2)nn(-c2cnn(C)c2)c1=O (stereo unspecified) + CNC(=O)c1ccc(Nc2nc(OC3CCCC3)c3c(-c4ccc5nc(C)oc5c4)c[nH]c3n2)c(OC)c1
IC50 [1]: > 10 µM | IC50 [2]: > 10 µM | IC50 [3]: > 10 µM | IC50 [4]: < 0.0316 µM | IC50 [5]: < 0.0316 µM | IC50 [6]: < 0.0316 µM | viability, T/C [7]: 108% | viability, T/C [8]: 100% | viability, T/C [9]: 101% | viability, T/C [10]: 101% | viability, T/C [11]: 102% | viability, T/C [12]: 98.6% | viability, T/C [13]: 113% | viability, T/C [14]: 102% | viability, T/C [15]: 91.3% | viability, T/C [16]: 103% | viability, T/C [17]: 118% | viability, T/C [18]: 75.4% | viability, T/C [19]: 59% | viability, T/C [20]: 57.4% | viability, T/C [21]: 56.9% | viability, T/C [22]: 48% | viability, T/C [23]: 59.3% | viability, T/C [24]: 57.8% | viability, T/C [25]: 38.9% | viability, T/C [26]: 34% | viability, T/C [27]: 33.5% | viability, T/C [28]: 39.9% | viability, T/C [29]: 47.7% | viability, T/C [30]: 34.3% | viability, T/C [31]: 30.5% | viability, T/C [32]: 31% | viability, T/C [33]: 30% | viability, T/C [34]: 30.9% | viability, T/C [35]: 37.9% | viability, T/C [36]: 36% | viability, T/C [37]: 34.2% | viability, T/C [38]: 30.3% | viability, T/C [39]: 29.9% | viability, T/C [40]: 26.9% | viability, T/C [41]: 32.5% | viability, T/C [42]: 30.7%
